“Also recorded” adds a separate entry of the source. Like-named read-outs stand apart in the source and are kept apart here.
Tests used:
[1] = target: 363 human kinases (including Aurora A/B/C) (Homo sapiens, UniProt Q16539); test: biochemical; format: biochemical; conditions: read-out: % Enzyme Activity (relative to DMSO controls)
Text: (§4) However, the Aurora A/B selectivity ratios derived from our in vitro and in vivo data can be compared to prioritize inhibitors.

[2] = tested on: 363 human kinases (including Aurora A/B/C); test: biochemical; format: biochemical
Text: as §4

[3] = tested on: pLATS2(Ser 83) in HeLa cells; test: Substrate phosphorylation immunofluorescence assay, pLATS2(Ser 83), HeLa; format: cell-based, human; conditions: HeLa; for pLATS2 (Ser83) IC50 / IC50: 8 h inhibitor treatment; for IC50: Homo sapiens, 8 h, read-out: pLATS2 (Ser83) IC50
Protocol: (§1) We employed the protocol described in Figure 3D to analyze substrate phosphorylation in HeLa cells following treatment with all 10 inhibitors in dose–response. Asynchronous cells were incubated with vehicle (DMSO) or different inhibitor doses for 8 h and then fixed and labeled with a mixture of three antibodies directed against pLATS2(Ser 83), pH3(Ser 28), and MPM2 [which detects mitotic phosphoepitopes; ([86])]. While both the anti-pLATS2(Ser 83) and MPM2 antibodies are mouse monoclonals, they are of different IgG subclasses [IgG2b for anti-pLATS2(Ser 83) and IgG1 for MPM2], and can thus be detected with subclass-specific secondary antibodies (Table S3 in Supplementary Material).
(§2) In control mitotic cells, pLATS2(Ser 83) is concentrated in foci around the spindle poles (Figure 3E; top row – green arrow) and pH3(Ser 28) is on the mitotic chromatin (Figure 3E; top row – red arrow). Selective kinase inhibition should result in loss of one signal but not the other, as illustrated by the example images for specific conditions in Figure 3E (middle and bottom rows). Cells were imaged in 4 channels to visualize pLATS2(Ser 83), pH3(Ser 28), MPM2, and DNA (labeled with Hoechst) and mitotic cells were segmented based on their bright MPM2 labeling (Figure 3E). Intensity and area thresholds were set to select the pLATS2(Ser 83) foci and the pH3(Ser 28)-labeled chromatin in their respective channels in DMSO-treated control cells and the same thresholds were applied for inhibitor-treated cells. The mean fluorescence intensity per pixel was measured to assess the activities of the kinases targeting these two substrate phosphorylation sites.
(§3) Twelve thousand HeLa cells, 10,000 U2OS cells, or 8,000 RPE1 cells were seeded into 96-well glass-bottom Sensoplates (Greiner) 16 h before inhibitor addition. Prior to seeding, the glass-bottom plates were coated with poly-L-lysine (Sigma). […] After 8 h cells were fixed with 4% PFA for 20 min at room temperature. The fixed cells were washed with PBS. For immunostaining, cells were permeabilized and blocked with PBS containing 10% normal donkey serum (Jackson ImmunoResearch) and 0.1% Triton-X100 for 1 h at room temperature. Primary antibodies against phospho-LATS2 (Ser 83), phospho-histone H3(Ser 28), and anti-phospho-MPM2 (see Table S3 in Supplementary Material) were incubated for 1 h at room temperature. […] Cells were then washed twice with PBS containing 0.1% Triton-X100. Image acquisition in four channels was performed using a CV7000 spinning disk confocal system (Yokogawa Electric Corporation) with a 40 × 0.95 NA U-PlanApo objective and 2560 × 2160 pixel sCMOS camera. […] Fifty fields per well were imaged with quadruplicate wells for each condition. Image analysis was done using the CV7000 image analysis software (Yokogawa Electric Corporation). Between 100 and 1,000 mitotic cells per condition were segmented applying object identification parameters to select for bright MPM2 labeling. Using a nuclear identifier protocol, minimum intensity thresholds were set for pLATS2(Ser 83) and the pH3(Ser 28) signals, and the resulting identified objects were eroded, dilated, and filtered for size by user-defined thresholds. For only the MPM2-positive mitotic cells, the mean fluorescence intensity of the identified pLATS2(Ser 83) and pH3(Ser 28) objects was measured, and the average intensity per cell per well was calculated. The same thresholds were applied for all of the inhibitor-treated samples, which were processed, imaged, and analyzed in parallel with control DMSO-treated cells. Data were fit using a four-parameter, variable slope fit in Prism (GraphPad). Primary and secondary antibody dilutions can be found in Table S3 in Supplementary Material.

[4] = tested on: pLATS2(Ser 83) in RPE1 cells; test: Substrate phosphorylation immunofluorescence assay, pLATS2(Ser 83), RPE1; format: cell-based, human; conditions: RPE1, 8 h inhibitor treatment; for IC50: Homo sapiens, RPE-1, read-out: pLATS2 (Ser83) IC50
Protocol: as §1, §2, §3

[5] = tested on: pLATS2(Ser 83) in U2OS cells; test: Substrate phosphorylation immunofluorescence assay, pLATS2(Ser 83), U2OS; format: cell-based, human; conditions: 8 h inhibitor treatment; for IC50: Homo sapiens, read-out: pLATS2 (Ser83) IC50
Protocol: as §1, §2, §3

[6] = tested on: pH3(Ser 28) in HeLa cells; test: Substrate phosphorylation immunofluorescence assay, pH3(Ser 28), HeLa; format: cell-based, human; conditions: for IC50: Homo sapiens, 8 h, read-out: pHistone H3 (Ser28) IC50
Protocol: (§5) After 8 h cells were fixed with 4% PFA for 20 min at room temperature. The fixed cells were washed with PBS. For immunostaining, cells were permeabilized and blocked with PBS containing 10% normal donkey serum (Jackson ImmunoResearch) and 0.1% Triton-X100 for 1 h at room temperature. Primary antibodies against phospho-LATS2 (Ser 83), phospho-histone H3(Ser 28), and anti-phospho-MPM2 (see Table S3 in Supplementary Material) were incubated for 1 h at room temperature. […] Cells were then washed twice with PBS containing 0.1% Triton-X100. […] Fifty fields per well were imaged with quadruplicate wells for each condition. Image analysis was done using the CV7000 image analysis software (Yokogawa Electric Corporation). Between 100 and 1,000 mitotic cells per condition were segmented applying object identification parameters to select for bright MPM2 labeling. Using a nuclear identifier protocol, minimum intensity thresholds were set for pLATS2(Ser 83) and the pH3(Ser 28) signals, and the resulting identified objects were eroded, dilated, and filtered for size by user-defined thresholds. […] The same thresholds were applied for all of the inhibitor-treated samples, which were processed, imaged, and analyzed in parallel with control DMSO-treated cells. Data were fit using a four-parameter, variable slope fit in Prism (GraphPad).

[7] = tested on: pH3(Ser 28) in RPE1 cells; test: Substrate phosphorylation immunofluorescence assay, pH3(Ser 28), RPE1; format: cell-based, human; conditions: Homo sapiens, read-out: pHistone H3 (Ser28) IC50
Protocol: as §5

[8] = tested on: pH3(Ser 28) in U2OS cells; test: Substrate phosphorylation immunofluorescence assay, pH3(Ser 28), U2OS; format: cell-based, human; conditions: Homo sapiens, read-out: pHistone H3 (Ser28) IC50
Protocol: as §5

HeLa cells [9] = test: Cytokinesis assay (live imaging, YFP-α-tubulin; H2B-RFP), HeLa; format: cell-based, human; conditions: for IC50: Homo sapiens, HeLa, read-out: Cytokinesis IC50
RPE1 cells [10] = test: Cytokinesis assay (live imaging, YFP-α-tubulin; H2B-RFP), RPE1; format: cell-based; conditions: Homo sapiens
U2OS cells [11] = test: Cytokinesis assay (live imaging, YFP-α-tubulin; H2B-RFP), U2OS; format: cell-based; conditions: Homo sapiens, read-out: Cytokinesis IC50
[12] = tested on: pAuroraA(Thr 288) in HeLa cells; test: Immunoblotting of Aurora A activation loop phosphorylation; format: cell-based, human; conditions: immunoblot
[13] = tested on: pAuroraB(Thr 232), pH3(Ser 10), pH3(Ser 28) in HeLa cells; test: Immunoblotting of pAuroraB(Thr 232), pH3(Ser 28) and pH3(Ser 10); format: cell-based, human; conditions: immunoblot, dose–response
[14] = tested on: HeLa, RPE1, and U2OS cells; test: Cellular proliferation analysis (ATPLite, 24 h); conditions: HeLa, RPE1, U2OS; 24 h (Figure 4D, Figure S2B)
Aurora B/INCENP^783–918 = target: T1, Aurora B/INCENP^783–918 (Homo sapiens, UniProt Q96GD4); test: Aurora B/INCENP^783–918 kinase assay (ADP-Glo); format: biochemical
T1 construct: purchased SignalChem
T1 sequence (Q96GD4 whole entry): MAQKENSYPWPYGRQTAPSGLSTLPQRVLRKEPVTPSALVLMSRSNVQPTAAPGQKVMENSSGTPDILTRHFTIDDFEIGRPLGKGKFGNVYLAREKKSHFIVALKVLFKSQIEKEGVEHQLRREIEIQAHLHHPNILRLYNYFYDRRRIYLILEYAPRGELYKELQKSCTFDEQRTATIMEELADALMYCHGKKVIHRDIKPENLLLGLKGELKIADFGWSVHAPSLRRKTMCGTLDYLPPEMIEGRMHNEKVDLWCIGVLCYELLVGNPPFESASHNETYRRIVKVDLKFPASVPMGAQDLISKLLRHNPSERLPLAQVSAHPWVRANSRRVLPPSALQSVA
T1 sequence (Q9NQS7 783-918 partner limits assumed): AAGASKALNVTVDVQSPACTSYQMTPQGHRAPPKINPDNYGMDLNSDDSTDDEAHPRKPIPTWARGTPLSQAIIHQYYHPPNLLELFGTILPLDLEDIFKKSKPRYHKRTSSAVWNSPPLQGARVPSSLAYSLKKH

Aurora A-TPX2 = conditions: cited from earlier work; for IC50: ref 121, read-out: Aurora A-TPX2 IC50 (Published)
Aurora B = conditions: read-out: Aurora B IC50 (Published), cited from earlier work
Aurora A/TPX2^1–43 = target: T2, Aurora A/TPX2^1–43 (Homo sapiens, UniProt O14965); test: Aurora A/TPX2^1–43 kinase assay (ADP-Glo); conditions: Aurora A-TPX2^1–43 Ki Mean ± SD, [ATP] = Km(ATP) (3 μM); 40 nM TPX2^1–43
T2 sequence (O14965 1-403): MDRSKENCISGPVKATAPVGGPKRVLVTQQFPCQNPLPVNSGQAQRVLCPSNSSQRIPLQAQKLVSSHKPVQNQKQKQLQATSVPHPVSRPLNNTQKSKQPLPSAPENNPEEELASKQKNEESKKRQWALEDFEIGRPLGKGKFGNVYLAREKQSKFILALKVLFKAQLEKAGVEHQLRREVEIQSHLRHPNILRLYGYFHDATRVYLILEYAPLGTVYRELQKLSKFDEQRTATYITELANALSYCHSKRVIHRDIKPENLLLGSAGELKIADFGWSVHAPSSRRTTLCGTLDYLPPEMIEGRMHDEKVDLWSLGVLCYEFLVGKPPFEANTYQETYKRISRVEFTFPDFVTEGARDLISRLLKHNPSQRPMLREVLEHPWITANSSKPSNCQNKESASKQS
T2 sequence (Q9ULW0 1-43 partner limits assumed): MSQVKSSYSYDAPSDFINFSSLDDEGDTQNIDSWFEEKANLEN

[15] = target: T3, full-length human Aurora A (Homo sapiens, UniProt O14965); test: Aurora A kinase assay (ADP-Glo, Kemptide substrate); conditions: Aurora A Ki Mean ± SD, [ATP] = Km(ATP) (35 μM); Ki calculated from IC50 with tight-binding equation
T3 sequence (O14965 1-403): T2 sequence (O14965 1-403)

HeLa cells [16] = test: G2 duration live imaging assay (GFP-PCNA; H2B-RFP), HeLa; format: cell-based, human; conditions: Homo sapiens, read-out: G2/M (G2 duration) IC50
RPE1 cells [17] = test: G2 duration live imaging assay (GFP-PCNA; H2B-RFP), RPE1; format: cell-based; conditions: Homo sapiens, RPE-1; RPE1; read-out: G2/M (G2 duration) IC50
U2OS cells [18] = test: G2 duration live imaging assay (GFP-PCNA; H2B-RFP), U2OS; format: cell-based; conditions: Homo sapiens, read-out: G2/M (G2 duration) IC50
Aurora A = conditions: read-out: Aurora A IC50 (Published), cited from earlier work
[19] = fold difference in potency calculated by dividing Ki values, for GSK1070916 the Aurora B Ki of ref 61 was used
[20] = RPE-1, RPE1, cytokinesis failure, read-out: Cytokinesis IC50
[21] = RPE-1, RPE1, 8 h inhibitor treatment

Chain of 363 human kinases (including Aurora A/B/C) (Homo sapiens, UniProt Q16539) (Q16539 whole entry): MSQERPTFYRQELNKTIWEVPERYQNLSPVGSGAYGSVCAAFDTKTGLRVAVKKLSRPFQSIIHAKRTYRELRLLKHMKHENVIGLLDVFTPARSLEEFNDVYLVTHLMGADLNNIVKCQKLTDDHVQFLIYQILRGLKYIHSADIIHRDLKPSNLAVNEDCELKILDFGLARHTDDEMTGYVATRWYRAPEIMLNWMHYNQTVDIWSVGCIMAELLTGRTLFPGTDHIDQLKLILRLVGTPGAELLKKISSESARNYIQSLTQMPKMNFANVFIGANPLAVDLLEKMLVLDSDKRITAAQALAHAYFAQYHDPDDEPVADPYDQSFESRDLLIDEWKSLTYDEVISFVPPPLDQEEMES

| Compound | pLATS2 (Ser83) IC50 [3] | Concentration completely eliminating pH3(Ser 28) labeling without affecting pLATS2(Ser 83) labeling [6] [nM] | IC50 ([6]; 8 h inhibitor treatment) [nM] | IC50 (HeLa cells [9]; cytokinesis failure) [nM] | IC50 (RPE1 cells [10]; [20]) [nM] | IC50 (U2OS cells [11]; cytokinesis failure) [nM] | IC50 (Aurora A-TPX2) [nM] | Specificity window (pLATS2(Ser 83) versus pH3(Ser 28)) [3] [fold] | IC50 [3] [nM] | IC50 [4] [nM] | IC50 [5] [nM] | IC50 [7, 21] [nM] | IC50 ([8]; 8 h inhibitor treatment) [nM] | IC50 (HeLa cells [16]) [nM] | IC50 (RPE1 cells [17]) [nM] | IC50 (U2OS cells [18]) [nM] | further results |
| --- | --- | --- | --- | --- | --- | --- | --- | --- | --- | --- | --- | --- | --- | --- | --- | --- | --- |
| CCN(CCO)CCCOc1ccc2c(Nc3cc(CC(=O)Nc4cccc(F)c4)[nH]n3)ncnc2c1 [AZD1152-HQPA] | NE (100 nM); also recorded: NE@100 nM | < 100 |  |  |  |  |  |  |  |  |  |  |  |  |  |  | remaining activity at 0.1 µM [1]: 104%; Kinases inhibited ≥65% of control [2]: Aurora B was the only enzyme; pLATS2 (Ser83) IC50 [4]: NE@200 nM; pLATS2 (Ser83) IC50 [5]: NE@200 nM; IC50 [6]: 5 nM; IC50 ([7]; RPE-1, 8 h): 25 nM; IC50 ([8]; 8 h): 12 nM; IC50 (HeLa cells [9]): 4 nM; IC50 (RPE1 cells [10]; RPE-1, read-out: Cytokinesis IC50): 23 nM; IC50 (U2OS cells [11]): 20 nM; Effect on Aurora A activity (pAuroraA Thr 288) ([12]; 300 nM (Figure S6)): did not; Effect on pAuroraA(Thr 288) ([12]; dose–response): did not affect; Effect on pH3(Ser 10), pH3(Ser 28), pAuroraB(Thr 232) [13]: eliminated; Toxicity / cytotoxicity (cellular proliferation) [14]: not observed |
| CCS(=O)(=O)Nc1ccc2c(c1)/C(=C(/Nc1ccc(CN3CCCCC3)cc1)c1ccccc1)C(=O)N2 [Hesperadin] | NE (100 nM); also recorded: NE@100 nM | < 100 | 14 | 14 | 47 | 17 | 11 |  |  |  |  |  |  |  |  |  | Ki (Aurora B/INCENP^783–918; Aurora B-INCENP^783–918 Ki Mean ± SD, [ATP] = Km(ATP) (10 μM)): 0.03 ± 0.014 nM; Selectivity ratio Aur B-INCENP^783–918 versus Aur A (Aurora B/INCENP^783–918; [19]): 40.2 fold; Selectivity ratio Aur B-INCENP^783–918 versus Aur A-TPX2^1–43 (Aurora B/INCENP^783–918; [19]): 45.3 fold; Stability under long-term live imaging conditions (HeLa cells [9]; ability to block cytokesis over time in live imaging, cell line not specified): appeared to be unstable under live imaging conditions; also recorded: appears to be unstable under long-term live imaging conditions; IC50 (Aurora B; ref 45): 250 nM; IC50 (Aurora B; ref 121): 3 nM; Ki (Aurora A/TPX2^1–43): 1.37 ± 0.12 nM; Ki [15]: 1.21 ± 0.14 nM |
| O=C(O)c1ccc(Nc2ncc3c(n2)-c2ccc(Cl)cc2C(c2c(F)cccc2F)=NC3)cc1 [MLN8054] |  |  | 2900 |  |  |  |  | […] | 290 | 720 | 800 | 880 | 3300 | 736 | 500 | 957 | IC50 (Aurora A; ref 48): […]; IC50 (Aurora A; ref 59): […]; Ki (Aurora A-TPX2; ref 71, read-out: Aurora A-TPX2 Ki (Published)): 3.3 nM |
| COc1cc(Nc2ncc3c(n2)-c2ccc(Cl)cc2C(c2c(F)cccc2OC)=NC3)ccc1C(=O)O [MLN8237] |  |  | 160 |  |  |  |  | 4 | 37 | 130 | 92 | 130 | 210 | 128 | 115 | 157 |  |
| Cc1cc(Nc2cc(N3CCN(C)CC3)nc(Sc3ccc(NC(=O)C4CC4)cc3)n2)[nH]n1 [VX-680] |  |  | 45 |  |  |  |  |  | 150 |  |  |  |  |  |  |  | IC50 (Aurora A; ref 119): […] |
| COc1cc2c(Nc3ccc(NC(=O)c4ccccc4)cc3)ncnc2cc1OCCCN1CCOCC1 [ZM447439] | NE (3 μM); also recorded: NE@3 μM |  | 410 | 615 | 1320 | 613 | 360 |  |  |  |  |  |  |  |  |  |  |
